From patent publication US11453689B2, “3-pyrrolidine-indole derivatives as serotonergic psychedelic agents for the treatment of CNS disorders” (Mindset Pharma Inc., priority 2020, dated 2022)
Read-outs that look alike come from different tables or passages of the source.

Columns and labels:
[1] = target: human 5-HT2A (h5-HT2A) receptor (Homo sapiens (Human), UniProt P28223); test: FLIPR calcium assay, human 5-HT2A receptor, agonist mode; type: cell-based
Experimental: I. Assessment of the Activated Effect of Exemplary Compounds of Formula I Targeting on Human 5-HT2A (h5-HT2A) Receptor Under Agonist Mode:
1. Culture the cells in cell culture medium (DMEM containing 10% FBS, 1× penicillin-streptomycin 300 μg/ml G418 and 100 μg/ml hygromycin B) at 37° C., 5% (v/v) CO2.
2. One day before the assays, detach the cell using TrypLE™ Express and count cells using cell counter.
3. Seed 20000 cells/well in 30 μl/well culture medium to a 384-well cell plate and incubate the cells overnight at 37° C., 5% (v/v) CO2.
4. On the assay day, prepare 2×dye solution following the manual of the FLIPR® Calcium 6 Assay Kit: i. Dilute the dye with assay buffer(20 mM HEPES in 1× HBSS, PH7.4); ii. Add probenecid to the final concentration of 5 mM; iii. Vortex vigorously for 1-2 minutes.
5. Medium from cell plate by flicking the cell plate on towel papers.
6. Add 10 μl of assay buffer and 10 μl of 2×dye solution to each well of the cell plate.
7. Put the cell plate on plate shaker, agitate the plate at 600 rpm for 2 minutes. Incubate the plate at 37° C. for 2 hours followed by additional 15-minute incubation at 25° C.
8. Prepare 3×compound in assay buffer: a. Dilute reference compounds to required concentration with DMSO. Add the compounds to a 384-well compound plate; b. Perform serial dilutions; c. Add 10 mM test compounds to the compound plate, perform 3-fold serial dilutions. d. […] Add 20 μl/well assay buffer to the compound plate; f. Mix the plate on plate shaker for 2 mins;
i. The normalized fluorescence reading (RFU) is calculated as shown follow, while Fmax and Fmin stand for maximum and minimum of calcium signal during defined time window: RFU=Fmax−Fmin
ii. Calculate the percentage activation by using following equation: […]
iii. Calculate EC50 by fitting % activation against log of compound concentrations with Hill equation using XLfit.

[2] = Rat liver microsomes stability with NADPH; settings: for half-life at 2 μM / microsomal CLint at 2 μM: male, rat, microsomes; for Remaining Percentage (%) after 60 min, Rat: rat liver microsomes, with NADPH, 2 μM
Experimental: (§1) The objective of this study was to estimate in vitro metabolic stability of exemplary compounds in pooled human, male rat and male mouse liver microsomes. The concentrations of exemplary compounds in reaction systems were evaluated by LC-MS/MS for estimating the stability in pooled human, male rat and male mouse liver microsomes. The in vitro intrinsic clearances of test compounds were determined as well.
(§2) A master solution in the “Incubation Plate” containing phosphate buffer, ultra-pure H2O, MgCl2 solution and liver microsomes was made according to Table 3. The mixture was pre-warmed at 37° C. water bath for 5 minutes.
(§3) 40 μL of 10 mM NADPH solution was added to each well. The final concentration of NADPH was 1 mM. The negative control samples were prepared by replacing NADPH with 40 μL of ultra-pure H2O. Samples were prepared in duplicate. Negative controls were prepared in singlet.
(§4) The reaction was started with the addition of 4 μL of 200 μM exemplary test compounds or control compounds to each master solution to get the final concentration of 2 μM. This study was performed in duplicate.
(§5) Aliquots of 50 μL were taken from the reaction solution at 0, 15, 30, 45 and 60 minutes. The reaction solutions were stopped by the addition of 4 volumes of cold methanol with IS (100 nM alprazolam, 200 nM imipramine, 200 nM labetalol and 2 μM ketoprofen). Samples were centrifuged at 3,220 g for 40 minutes. Aliquot of 90 μL of the supernatant was mixed with 90 μL of ultra-pure H2O and then was used for LC-MS/MS analysis.
(§6) LC/MS analysis was performed for all samples from this study using a Shimadzu liquid chromatograph separation system equipped with degasser DGU-20A5R; solvent delivery unit LC-30AD; system controller SIL-30AC; column oven CTO-30A; CTC Analytics HTC PAL System. Mass spectrometric analysis was performed using an Triple Quad™ 5500 instrument.
(§7) All calculations were carried out using Microsoft Excel. Peak areas were determined from extracted ion chromatograms. The slope value, k, was determined by linear regression of the natural logarithm of the remaining percentage of the parent drug vs. incubation time curve.
(§8) Conversion of the in vitro t1/2 (min) into the in vitro intrinsic clearance (in vitro CLint, in μL/min/mg proteins) was done using the following equation (mean of duplicate determinations): […]

[3] = Human liver microsomes stability with NADPH; settings: for Remaining Percentage (%) after 60 min, Human: human liver microsomes, with NADPH, 2 μM; for half-life at 2 μM / microsomal CLint at 2 μM: human, microsomes
Experimental: as §1, §2, §3, §4, §5, §6, §7, §8

[4] = Mouse liver microsomes stability with NADPH; settings: for half-life at 2 μM / microsomal CLint at 2 μM: male, mouse, microsomes; for Remaining Percentage (%) after 60 min, Mouse: mouse liver microsomes, with NADPH, 2 μM
Experimental: as §1, §2, §3, §4, §5, §6, §7, §8

[5] = target: human 5-HT2A receptor (Homo sapiens (Human), UniProt P28223); test: Radioligand ([3H]-ketanserin) binding assay on human 5-HT2A receptor
Experimental: i. Prepare the assay buffer following the table below;
ii. Preparation of 8 doses of reference and exemplary test compounds starting from 10 mM stock solution as requested by 5-fold serial dilutions with 100%;
iii. […] a. Add 50 μl/well of 0.5% (v/v) PEI to UniFilter-96 GF/B plates. Seal the plates and incubate at 4° C. for 3 hrs; b. After incubation, wash the plates 3 times with ice-cold wash buffer (50 mM Tris, pH7.4);
iv. Preparation of assay plates: a. Dilute cell membrane with assay buffer and add 330 μl/well to 96 round deep well plates to reach a concentration of 20 μg/well; b. Prepare 8 concentrations of reference or exemplary test compounds and add 110 μl/well to 96 round deep well plates; c. Dilute [3H]-ketanserin with assay buffer to 5 nM (5× final concentration) and add 110 μl/well to 96 round deep well plates.
v. Centrifuge the plate at 1000 rpm for 30 secs and then agitate at 600 rpm, R.T. for 5 min.
vi. Seal the plates and incubate the plate at 27° C. for 90 min.
vii. Stop the incubation by vacuum filtration onto GF/B filter plates followed by 4 times washing with ice-cold wash buffer (50 mM Tris, pH7.4).
ix. Seal the filter plates and add 40 μl/well of scintillation cocktail.
x. Read the plate by using a Microbeta2 microplate counter.
For reference and exemplary test compounds, the results are expressed as % Inhibition, using the normalization equation: N=100−100×(U−C2)/(C1−C2), where U is the unknown value, C1 is the average of high controls, and C2 is the average of low controls. The IC50 is determined by fitting percentage of inhibition as a function of compound concentrations with Hill equation using XLfit.

Compound: [2H]C([2H])([2H])N1CCC[C@H]1Cc1c[nH]c2cccc(OCc3ccccc3)c12 [Compound I-52, (S)-4-(benzyloxy)-3-((1-(methyl-d3)pyrrolidin-2-yl)methyl)-1H-indole]
- EC50 [1]: > 10 µM

Compound: [2H]C([2H])(c1c[nH]c2cccc(OCc3ccccc3)c12)[C@H]1CCCN1C([2H])([2H])[2H] [Compound I-43, (R)-4-(benzyloxy)-3-((1-(methyl-d3)pyrrolidin-2-yl)methyl-d2)-1H-indole]
- EC50 [1]: > 10 µM

Compound: [2H]C([2H])(c1c[nH]c2cccc(O)c12)[C@@H]1CCCN1 [Compound I-51, (S)-3-(pyrrolidin-2-ylmethyl-d2)-1H-indol-4-ol]
- EC50 [1]: < 1 µM

Compound: [2H]C([2H])([2H])N1CCC[C@@H]1Cc1c[nH]c2cccc(F)c12 [Compound I-40, (R)-4-fluoro-3-((1-(methyl-d3)pyrrolidin-2-yl)methyl)-1H-indole]
- EC50 [1]: < 1 µM
- half-life at 2 μM [2]: 54.3 min
- microsomal CLint at 2 μM [2]: 25.5 µL/min/mg
- Remaining Percentage (%) after 60 min, Rat [2]: 46.51%
- Remaining Percentage (%) after 60 min, Human [3]: 35.69%
- half-life at 2 μM [3]: 40.4 min
- microsomal CLint at 2 μM [3]: 34.5 µL/min/mg
- half-life at 2 μM [4]: 63 min
- microsomal CLint at 2 μM [4]: 22 µL/min/mg
- Remaining Percentage (%) after 60 min, Mouse [4]: 51.70%
- IC50 [5]: < 0.5 µM

Compound: [2H]C([2H])([2H])N1CCC[C@H]1Cc1c[nH]c2cccc(O)c12 [Compound I-53, (S)-3-((1-(methyl-d3)pyrrolidin-2-yl)methyl)-1H-indol-4-ol]
- EC50 [1]: 1 to 10 µM
- IC50 [5]: > 5 µM

Compound: CN(C)CCc1c[nH]c2cccc(O)c12 [Psilocin, 4-hydroxy-N,N-dimethyltryptamine, reference compound]
- Remaining Percentage (%) after 60 min, Rat [2]: 62.68%
- Remaining Percentage (%) after 60 min, Human [3]: 70.16%
- Remaining Percentage (%) after 60 min, Mouse [4]: 96.89%

Compound: [2H]C([2H])(c1c[nH]c2cccc(F)c12)[C@@H]1CCCN1C([2H])([2H])[2H] [Compound I-42, (S)-4-fluoro-3-((1-(methyl-d3)pyrrolidin-2-yl)methyl-d2)-1H-indole]
- EC50 [1]: > 10 µM
- IC50 [5]: > 5 µM

Compound: [2H]C([2H])([2H])N1CCC[C@@H]1Cc1c[nH]c2cccc(OC(=O)CCCCCCC/C=C\C/C=C\CCCCC)c12 [Compound I-48, 3-(((R)-1-(methyl-d3)pyrrolidin-2-yl)methyl)-1H-indol-4-yl (9Z,12Z)-octadeca-9,12-dienoate]
- EC50 ([1]; read-out: h5-HT2A EC50, FLIPR, agonist mode): 1 to 10 µM
- half-life at 2 μM [2]: 38.9 min
- microsomal CLint at 2 μM [2]: 35.6 µL/min/mg
- Remaining Percentage (%) after 60 min, Rat [2]: 41.86%
- Remaining Percentage (%) after 60 min, Human [3]: 34.38%
- half-life at 2 μM [3]: 73.4 min
- microsomal CLint at 2 μM [3]: 18.9 µL/min/mg
- half-life at 2 μM [4]: 17.3 min
- microsomal CLint at 2 μM [4]: 80 µL/min/mg
- Remaining Percentage (%) after 60 min, Mouse [4]: 9.06%
- IC50 ([5]; read-out: h5-HT2A IC50, [3H]-ketanserin competition binding): < 0.5 µM

Compound: CN1CCC[C@@H]1Cc1c[nH]c2cccc(O)c12 [Compound I-47, (R)-3-((1-methylpyrrolidin-2-yl)methyl)-1H-indol-4-ol]
- EC50 [1]: < 1 µM

Compound: [2H]C([2H])(c1c[nH]c2cccc(O)c12)[C@H]1CCCN1 [Compound I-50, (R)-3-(pyrrolidin-2-ylmethyl-d2)-1H-indol-4-ol]
- EC50 [1]: < 1 µM
- half-life at 2 μM [2]: 39.7 min
- microsomal CLint at 2 μM [2]: 34.9 µL/min/mg
- Remaining Percentage (%) after 60 min, Rat [2]: 34.11%
- Remaining Percentage (%) after 60 min, Human [3]: 69.29%
- half-life at 2 μM [3]: 113 min
- microsomal CLint at 2 μM [3]: 12.2 µL/min/mg
- half-life at 2 μM [4]: 74.6 min
- microsomal CLint at 2 μM [4]: 18.6 µL/min/mg
- Remaining Percentage (%) after 60 min, Mouse [4]: 57.27%
- IC50 [5]: 0.5 to 5 µM

Compound: [2H]C([2H])(c1c[nH]c2cccc(OC(=O)CCCCCCC/C=C\C/C=C\CCCCC)c12)[C@H]1CCCN1C([2H])([2H])[2H] [Compound I-49, 3-(((R)-1-(methyl-d3)pyrrolidin-2-yl)methyl-d2)-1H-indol-4-yl (9Z,12Z)-octadeca-9,12-dienoate]
- EC50 ([1]; FLIPR, agonist mode, read-out: h5-HT2A EC50): 1 to 10 µM
- half-life at 2 μM [2]: 48.4 min
- microsomal CLint at 2 μM [2]: 28.6 µL/min/mg
- Remaining Percentage (%) after 60 min, Rat [2]: 42.38%
- Remaining Percentage (%) after 60 min, Human [3]: 86.81%
- half-life at 2 μM [3]: 294 min
- microsomal CLint at 2 μM [3]: 4.72 µL/min/mg
- half-life at 2 μM [4]: 20.8 min
- microsomal CLint at 2 μM [4]: 66.5 µL/min/mg
- Remaining Percentage (%) after 60 min, Mouse [4]: 13.60%
- IC50 ([5]; [3H]-ketanserin competition binding, read-out: h5-HT2A IC50): < 0.5 µM

Compound: CN1CCC[C@@H]1Cc1c[nH]c2cccc(OCc3ccccc3)c12 [Compound I-46, (R)-4-(benzyloxy)-3-((1-methylpyrrolidin-2-yl)methyl)-1H-indole]
- EC50 [1]: > 10 µM

Compound: [2H]C([2H])(c1c[nH]c2cccc(Cl)c12)[C@H]1CCCN1C([2H])([2H])[2H] [Compound I-38, (R)-4-chloro-3-((1-(methyl-d3)pyrrolidin-2-yl)methyl-d2)-1H-indole]
- EC50 [1]: > 10 µM
- IC50 [5]: < 0.5 µM

Compound: [2H]C([2H])([2H])N1CCC[C@@H]1Cc1c[nH]c2cccc(OCc3ccccc3)c12 [Compound I-45, (R)-4-(benzyloxy)-3-((1-(methyl-d3)pyrrolidin-2-yl)methyl)-1H-indole]
- EC50 [1]: > 10 µM

Compound: [2H]C([2H])(c1c[nH]c2cccc(F)c12)[C@H]1CCCN1 [Compound I-41, (R)-4-fluoro-3-(pyrrolidin-2-ylmethyl-d2)-1H-indole]
- EC50 [1]: 1 to 10 µM
- IC50 [5]: 0.5 to 5 µM

Compound: [2H]C([2H])(c1c[nH]c2cccc(OP(=O)(O)O)c12)[C@H]1CCCN1C([2H])([2H])[2H] [Compound I-54, (R)-3-((1-(methyl-d3)pyrrolidin-2-yl)methyl-d2)-1H-indol-4-yl dihydrogen phosphate]
- EC50 [1]: 1 to 10 µM

Compound: Oc1cccc2[nH]cc(C[C@H]3CCCN3)c12 [Compound I-3, (R)-3-(pyrrolidin-2-ylmethyl)-1H-indol-4-ol]
- EC50 [1]: < 1 µM
